Data on 13 molecules can be found in ChEMBL document CHEMBL5634092, “Design, synthesis, and biological evaluation of novel HDAC/CD13 dual inhibitors for the treatment of cancer” (Eur J Med Chem, 2023).

Broadly, the IC50 is the concentration that inhibits the measured activity by half. Low readings indicate greater potency, high ones weaker potency.

Series [1] deals with T1, Aminopeptidase N (Sus scrofa, UniProt P15145).
T1 sequence (P15145 whole entry): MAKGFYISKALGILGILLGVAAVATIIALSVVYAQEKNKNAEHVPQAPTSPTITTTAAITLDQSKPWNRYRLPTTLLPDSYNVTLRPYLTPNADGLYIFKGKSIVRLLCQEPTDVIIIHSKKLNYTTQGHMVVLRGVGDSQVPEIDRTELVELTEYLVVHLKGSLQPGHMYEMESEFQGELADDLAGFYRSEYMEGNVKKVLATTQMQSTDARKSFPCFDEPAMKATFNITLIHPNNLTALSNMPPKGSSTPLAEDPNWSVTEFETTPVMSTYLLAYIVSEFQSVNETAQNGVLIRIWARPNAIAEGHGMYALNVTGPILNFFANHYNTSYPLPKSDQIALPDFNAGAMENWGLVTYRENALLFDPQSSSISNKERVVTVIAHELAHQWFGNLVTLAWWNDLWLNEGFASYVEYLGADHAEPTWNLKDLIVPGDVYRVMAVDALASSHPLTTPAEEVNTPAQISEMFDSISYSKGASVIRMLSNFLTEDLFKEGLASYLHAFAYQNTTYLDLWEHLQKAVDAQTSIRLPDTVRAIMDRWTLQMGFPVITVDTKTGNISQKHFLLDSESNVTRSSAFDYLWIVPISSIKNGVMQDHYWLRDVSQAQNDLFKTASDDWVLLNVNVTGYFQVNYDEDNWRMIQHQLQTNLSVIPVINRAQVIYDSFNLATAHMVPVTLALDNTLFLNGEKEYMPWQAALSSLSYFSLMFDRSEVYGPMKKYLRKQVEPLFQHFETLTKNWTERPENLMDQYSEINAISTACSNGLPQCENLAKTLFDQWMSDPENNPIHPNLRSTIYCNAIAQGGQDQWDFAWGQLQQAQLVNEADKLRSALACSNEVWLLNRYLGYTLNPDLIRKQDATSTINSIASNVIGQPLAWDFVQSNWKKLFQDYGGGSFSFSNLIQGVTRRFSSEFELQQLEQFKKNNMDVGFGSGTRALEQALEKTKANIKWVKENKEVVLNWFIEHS
Description: Inhibition of porcine kidney CD13 using L-leucine-p-nitroanilide as substrate incubated for 30 mins by microplate reader analysis.

For a further series, the target named is Histone deacetylase 3 (Homo sapiens, UniProt O15379). Description: Inhibition of human HDAC3 using Boc-Lys (acetyl)-AMC as substrate incubated for 1 hr followed by substrate addition and further incubated for 2 hrs by fluorescence assay.
Sequence of Histone deacetylase 3 (O15379 whole entry): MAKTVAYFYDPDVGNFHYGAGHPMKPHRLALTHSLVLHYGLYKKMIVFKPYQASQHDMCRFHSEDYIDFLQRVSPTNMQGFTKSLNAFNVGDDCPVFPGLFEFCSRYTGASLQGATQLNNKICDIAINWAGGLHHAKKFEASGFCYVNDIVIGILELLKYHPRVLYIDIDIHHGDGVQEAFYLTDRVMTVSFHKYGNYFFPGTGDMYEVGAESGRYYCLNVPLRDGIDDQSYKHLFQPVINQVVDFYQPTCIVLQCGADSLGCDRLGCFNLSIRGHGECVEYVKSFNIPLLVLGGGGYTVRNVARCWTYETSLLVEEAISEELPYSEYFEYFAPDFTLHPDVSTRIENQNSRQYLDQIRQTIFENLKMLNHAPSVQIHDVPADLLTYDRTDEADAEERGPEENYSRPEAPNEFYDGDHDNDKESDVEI
Another series deals with Histone deacetylase 1 (Homo sapiens, UniProt Q13547). In words: Inhibition of human HDAC1 using Boc-Lys (acetyl)-AMC as substrate incubated for 1 hr followed by substrate addition and further incubated for 2 hrs by fluorescence assay.
Sequence of Histone deacetylase 1 (Q13547 whole entry): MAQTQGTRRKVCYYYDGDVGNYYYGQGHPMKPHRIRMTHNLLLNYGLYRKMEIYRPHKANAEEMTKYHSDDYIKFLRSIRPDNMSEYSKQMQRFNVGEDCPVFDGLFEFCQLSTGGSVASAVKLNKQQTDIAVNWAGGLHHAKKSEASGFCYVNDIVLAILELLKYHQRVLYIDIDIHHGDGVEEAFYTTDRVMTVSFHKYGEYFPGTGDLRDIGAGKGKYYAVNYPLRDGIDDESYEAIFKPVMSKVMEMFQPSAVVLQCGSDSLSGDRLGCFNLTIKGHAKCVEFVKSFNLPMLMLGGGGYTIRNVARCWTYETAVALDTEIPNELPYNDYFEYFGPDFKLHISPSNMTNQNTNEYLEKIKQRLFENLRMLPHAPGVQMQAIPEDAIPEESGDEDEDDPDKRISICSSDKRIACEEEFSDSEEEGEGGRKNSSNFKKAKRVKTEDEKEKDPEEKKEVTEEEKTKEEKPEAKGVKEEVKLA
The target of a further series is Histone deacetylase 2 (Homo sapiens, UniProt Q92769). In words: Inhibition of human HDAC2 using Boc-Lys (acetyl)-AMC as substrate incubated for 1 hr followed by substrate addition and further incubated for 2 hrs by fluorescence assay.
Sequence of Histone deacetylase 2 (Q92769 whole entry): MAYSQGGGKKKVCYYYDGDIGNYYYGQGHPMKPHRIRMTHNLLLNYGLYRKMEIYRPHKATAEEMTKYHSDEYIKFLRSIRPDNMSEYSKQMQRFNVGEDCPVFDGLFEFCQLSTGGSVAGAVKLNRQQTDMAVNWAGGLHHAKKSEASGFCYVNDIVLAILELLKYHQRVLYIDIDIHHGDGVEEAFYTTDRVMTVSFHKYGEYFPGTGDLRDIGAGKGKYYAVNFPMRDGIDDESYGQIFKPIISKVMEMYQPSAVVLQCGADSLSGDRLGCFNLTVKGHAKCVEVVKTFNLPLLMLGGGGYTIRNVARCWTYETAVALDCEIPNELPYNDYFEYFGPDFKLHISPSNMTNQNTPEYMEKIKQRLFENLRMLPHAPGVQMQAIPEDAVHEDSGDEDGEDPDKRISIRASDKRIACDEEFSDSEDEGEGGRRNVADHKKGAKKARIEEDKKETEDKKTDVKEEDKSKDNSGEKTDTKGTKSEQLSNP
The test system of series [2] is MV4-11. In words: Antiproliferative activity against human MV4-11 cells incubated for 48 hrs by resazurin based microplate reader analysis. The settings on record: MV4-11, 48 h. In general terms: The colour change of resazurin is a common sign of viable cells or microbes.
The target in series [3] is Aminopeptidase N (Homo sapiens, UniProt P15144). Description: Inhibition of human CD13 using L-leucine-p-nitroanilide as substrate incubated for 30 mins by microplate reader analysis.
Sequence of Aminopeptidase N (Homo sapiens, UniProt P15144) (P15144 whole entry): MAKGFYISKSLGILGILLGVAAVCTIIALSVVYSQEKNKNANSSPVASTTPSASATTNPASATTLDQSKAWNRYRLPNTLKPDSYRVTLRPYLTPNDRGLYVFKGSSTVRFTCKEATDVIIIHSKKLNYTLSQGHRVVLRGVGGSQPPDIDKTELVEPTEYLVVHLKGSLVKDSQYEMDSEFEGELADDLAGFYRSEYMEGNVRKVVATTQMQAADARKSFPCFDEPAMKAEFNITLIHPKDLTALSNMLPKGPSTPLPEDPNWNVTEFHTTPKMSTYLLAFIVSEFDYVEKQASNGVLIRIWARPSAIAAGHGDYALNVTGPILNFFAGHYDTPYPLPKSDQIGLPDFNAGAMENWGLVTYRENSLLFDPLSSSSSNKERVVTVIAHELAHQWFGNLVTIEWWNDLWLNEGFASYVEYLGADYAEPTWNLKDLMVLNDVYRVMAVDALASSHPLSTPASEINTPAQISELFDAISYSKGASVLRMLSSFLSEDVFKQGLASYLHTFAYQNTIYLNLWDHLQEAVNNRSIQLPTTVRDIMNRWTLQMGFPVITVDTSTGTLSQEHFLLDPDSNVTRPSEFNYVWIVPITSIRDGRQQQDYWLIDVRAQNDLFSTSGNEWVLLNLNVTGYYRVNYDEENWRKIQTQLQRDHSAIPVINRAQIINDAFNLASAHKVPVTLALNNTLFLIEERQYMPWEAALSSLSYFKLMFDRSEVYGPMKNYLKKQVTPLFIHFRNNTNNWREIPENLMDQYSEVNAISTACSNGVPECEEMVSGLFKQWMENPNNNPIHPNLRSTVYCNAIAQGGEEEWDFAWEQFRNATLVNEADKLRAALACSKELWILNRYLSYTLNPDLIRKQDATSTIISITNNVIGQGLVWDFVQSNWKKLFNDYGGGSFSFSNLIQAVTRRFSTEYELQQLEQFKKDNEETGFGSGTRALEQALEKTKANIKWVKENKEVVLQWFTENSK
In another series the test system is JeKo-1. Description: Antiproliferative activity against human JeKo-1 cells incubated for 48 hrs by resazurin based microplate reader analysis. To be noted: JeKo-1, 48 h.
Series [4] is described as follows: Cytotoxicity against human HL7702 cells incubated for 48 hrs by resazurin based microplate reader analysis. The settings on record: HL7702 (L02) cells.
In the next series the test system is K562. In words: Antiproliferative activity against human K562 cells incubated for 48 hrs by resazurin based microplate reader analysis. The settings on record: K562, 48 h.
The test system of the next series is HL-60. In words: Antiproliferative activity against human HL-60 cells incubated for 48 hrs by resazurin based microplate reader analysis. To be noted: HL-60, 48 h.
In another series the test system is BXPC-3. In words: Antiproliferative activity against human BXPC-3 cells incubated for 48 hrs by resazurin based microplate reader analysis. The settings on record: BXPC-3, 48 h.
In series [5] the test system is A549. In words: Antiproliferative activity against human A549 cells incubated for 48 hrs by resazurin based microplate reader analysis. To be noted: A549, 48 h.
The subject of series [6] is MV4-11. Description: Induction of apoptosis in human MV4-11 cells assessed as apoptotic rate at 2 uM incubated for 24 hrs by Annexin V-FITC staining based flow cytometry (reference value: 24.09 %). In kind it is functional. For orientation: Flow cytometry measures light scatter and fluorescence of single cells or particles in a stream.
The test system of series [7] is A549. Description: Induction of apoptosis in human A549 cells assessed as apoptotic rate at 20 uM incubated for 24 hrs by Annexin V-FITC staining based flow cytometry (reference value: 8.02 %). In kind it is functional.
Series [8] addresses T2, Protein deacetylase HDAC6 (Homo sapiens, UniProt Q9UBN7).
T2 sequence (Q9UBN7 whole entry): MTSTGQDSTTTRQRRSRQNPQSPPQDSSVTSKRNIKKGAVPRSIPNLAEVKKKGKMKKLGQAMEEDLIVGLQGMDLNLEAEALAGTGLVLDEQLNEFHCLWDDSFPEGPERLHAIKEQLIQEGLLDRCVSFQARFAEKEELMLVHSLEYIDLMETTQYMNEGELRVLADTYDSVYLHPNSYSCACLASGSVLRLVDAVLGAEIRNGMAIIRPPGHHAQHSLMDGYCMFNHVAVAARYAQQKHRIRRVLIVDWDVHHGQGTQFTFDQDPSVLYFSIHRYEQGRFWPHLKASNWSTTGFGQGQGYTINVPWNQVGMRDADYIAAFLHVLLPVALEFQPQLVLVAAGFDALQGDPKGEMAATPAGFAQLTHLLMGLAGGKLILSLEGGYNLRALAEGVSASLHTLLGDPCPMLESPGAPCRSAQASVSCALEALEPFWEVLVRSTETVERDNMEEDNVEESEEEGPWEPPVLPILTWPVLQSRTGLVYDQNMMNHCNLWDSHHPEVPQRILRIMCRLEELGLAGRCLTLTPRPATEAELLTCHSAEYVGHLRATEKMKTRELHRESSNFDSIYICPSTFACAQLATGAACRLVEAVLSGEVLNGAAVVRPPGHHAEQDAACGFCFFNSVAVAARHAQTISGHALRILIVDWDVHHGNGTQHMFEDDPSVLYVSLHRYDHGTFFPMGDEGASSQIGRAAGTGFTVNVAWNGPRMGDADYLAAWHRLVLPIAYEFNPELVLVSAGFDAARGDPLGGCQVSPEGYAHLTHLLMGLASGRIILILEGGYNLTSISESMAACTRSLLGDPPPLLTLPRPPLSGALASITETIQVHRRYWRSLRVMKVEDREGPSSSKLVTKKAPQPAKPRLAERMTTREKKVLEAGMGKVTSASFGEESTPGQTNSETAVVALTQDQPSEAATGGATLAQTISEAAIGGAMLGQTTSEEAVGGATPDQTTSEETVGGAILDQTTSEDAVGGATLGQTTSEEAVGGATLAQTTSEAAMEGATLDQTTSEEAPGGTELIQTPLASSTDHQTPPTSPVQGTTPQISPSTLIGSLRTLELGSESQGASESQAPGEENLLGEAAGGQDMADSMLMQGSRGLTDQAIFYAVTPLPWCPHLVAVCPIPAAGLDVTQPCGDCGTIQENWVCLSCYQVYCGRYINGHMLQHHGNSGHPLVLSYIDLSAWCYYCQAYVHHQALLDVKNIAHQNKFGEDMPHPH
In words: Inhibition of human HDAC6 using Boc-Lys (acetyl)-AMC as substrate incubated for 1 hr followed by substrate addition and further incubated for 2 hrs by fluorescence assay.

A further series concerns the target T3, Histone deacetylase 8 (Homo sapiens, UniProt Q9BY41).
T3 sequence (Q9BY41 whole entry): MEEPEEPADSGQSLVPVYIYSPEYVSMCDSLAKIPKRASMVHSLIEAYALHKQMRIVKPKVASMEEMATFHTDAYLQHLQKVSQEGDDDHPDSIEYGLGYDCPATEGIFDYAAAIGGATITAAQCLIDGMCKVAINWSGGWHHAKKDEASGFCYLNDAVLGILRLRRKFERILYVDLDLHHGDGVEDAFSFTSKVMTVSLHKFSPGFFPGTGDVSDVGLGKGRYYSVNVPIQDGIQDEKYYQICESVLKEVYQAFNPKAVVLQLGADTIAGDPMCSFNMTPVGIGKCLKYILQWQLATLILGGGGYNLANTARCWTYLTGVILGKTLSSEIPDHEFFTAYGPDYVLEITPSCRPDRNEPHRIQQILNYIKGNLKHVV
Description: Inhibition of human HDAC8 using Boc-Lys (tri-fluoroacetyl)-AMC as substrate incubated for 1 hr followed by substrate addition and further incubated for 2 hrs by fluorescence assay.

Consider `CCCNNC(=O)CCCCCNC(=O)[C@H](CC(C)C)NC(=O)[C@@H](O)[C@H](N)Cc1ccccc1`, for which the figures for the concentration for half-maximal inhibition (IC50) on Aminopeptidase N [1] and on Histone deacetylase 3 were 3030 nM and 90 nM, respectively.

Consider `CCCNNC(=O)[C@H](CC(C)C)NC(=O)[C@@H](O)[C@H](N)Cc1ccccc1`, for which the IC50 on Aminopeptidase N [1] is 18200 nM; at Histone deacetylase 1, above 10000 nM; against Histone deacetylase 2 it was above 10000 nM; at Histone deacetylase 3, above 10000 nM; in the series on MV4-11 [2] it was above 20000 nM.

Consider `CCCNNC(=O)c1ccc(CNC(=O)[C@H](CC(C)C)NC(=O)[C@H](O)[C@@H](N)Cc2ccccc2)cc1`, for which the values for the IC50 against Aminopeptidase N [1], on Aminopeptidase N [3] and at Histone deacetylase 3 were above 20000 nM, above 20000 nM and 60 nM, respectively.

`CCCNNC(=O)c1ccc(CNC(=O)[C@H](CC(C)C)NC(=O)NCc2cccc3ccccc23)cc1`: the IC50 against Aminopeptidase N [1] was above 20000 nM; on Histone deacetylase 3, 120 nM.

For the molecule `COC(=O)c1ccc(CNC(=O)[C@H](CC(C)C)NC(=O)[C@@H](O)[C@H](N)Cc2ccccc2)cc1.Cl`, the IC50 with JeKo-1 is above 20000 nM; at Aminopeptidase N [1], 1350 nM; against Aminopeptidase N [3] it was 480 nM; on Histone deacetylase 1, above 10000 nM; at Histone deacetylase 2, above 10000 nM; at Histone deacetylase 3, 2420 nM. Besides, the IC50 in the series with MV4-11 [2], in the series on K562, in the series on HL-60, in the series with BXPC-3 and in the series on A549 [5] was above 20000 nM in each case. For the same molecule, the IC50 at 48 h in series [4] was above 100000 nM. Besides, the Activity is 33.7% with MV4-11 [6] and 8.31% with A549 [7].

As for `CCCNNC(=O)c1ccc(CNC(=O)[C@H](CC(C)C)NC(=O)[C@@H](NC(=O)[C@@H](O)[C@H](N)Cc2ccccc2)[C@@H](C)CC)cc1`, the IC50 worked out at 400 nM against Aminopeptidase N [1] and 80 nM against Histone deacetylase 3.

As for `CC(C)C[C@H](NC(=O)[C@@H](O)[C@H](N)Cc1ccccc1)C(=O)NCc1ccc(C(=O)NO)cc1`, the half-inhibitory concentration (IC50) against Aminopeptidase N [1] stood at 550 nM; against Histone deacetylase 3 it was 1430 nM; in [8], 330 nM; against Histone deacetylase 8 it was 1350 nM.

Turning to `CCCNNC(=O)c1ccc(CNC(=O)[C@H](CC(C)C)NC(=O)Nc2c(C)cccc2C)cc1`, the IC50 at Aminopeptidase N [1] is above 20000 nM; against Histone deacetylase 3, 290 nM.

With `CC(C)C[C@H](NC(=O)[C@@H](O)[C@H](N)Cc1ccccc1)C(=O)NCc1ccc(C(=O)Nc2ccccc2N)cc1`, the IC50 worked out at 1630 nM against Aminopeptidase N [1] and 60 nM on Histone deacetylase 3.

Consider `CCCNNC(=O)CCCCCCNC(=O)[C@H](CC(C)C)NC(=O)[C@@H](O)[C@H](N)Cc1ccccc1`, for which the half-maximal inhibitory concentration (IC50) on Aminopeptidase N [1] turned out to be 9530 nM; against Histone deacetylase 3, 50 nM.

`CCCNNC(=O)c1ccc(CNC(=O)[C@H]2CCCN2C(=O)[C@H](CC(C)C)NC(=O)[C@@H](O)[C@H](N)Cc2ccccc2)cc1` yielded an IC50 against Aminopeptidase N [1] of 2690 nM.

Regarding `CC(C)C[C@H](NC(=O)[C@@H](O)[C@H](N)Cc1ccccc1)C(=O)O` [UBENIMEX], the IC50 was above 10000 nM against Histone deacetylase 1, above 10000 nM against Histone deacetylase 2, above 10000 nM against Histone deacetylase 3 and above 20000 nM in the series with MV4-11 [2].

At Aminopeptidase N [1], `O=C(CCCCCCC(=O)Nc1ccccc1)NO` [VORINOSTAT] yielded an IC50 above 20000 nM.
